Results as given in patent publication US9738599B2, “Thromboxane receptor antagonists” (UNIVERSITY COLLEGE DUBLIN, NATIONAL UNIVERSITY OF IRELAND, …, priority 2012, dated 2017).

How the values were obtained:
TPβ = biological target: T1, TPβ (Homo sapiens, UniProt P21731); test: U46619-induced [Ca2+]i mobilization in HEK.TPβ cells; assay type: cell-based; conditions: for Reduction of U46619-mediated calcium mobilization in HEK.TPβ cells: at 1 & 10 μM concentrations; for Calcium mobilization, Percentage of Control, TPβ / remaining activity at 1 µM: 1 μM U46619, HEK.TPβ, mean ± S.E.M.; for remaining activity at 1 µM: read-out: Calcium mobilization, Percentage of Control, TPβ; for inhibition at 0.5 µM: antagonist 0.5 μM, read-out: Inhibition of U46619-mediated responses in HEK.TPβ cells
T1 construct: expressed in transfected cells
T1 sequence (P21731 1-407 isoform P21731-2): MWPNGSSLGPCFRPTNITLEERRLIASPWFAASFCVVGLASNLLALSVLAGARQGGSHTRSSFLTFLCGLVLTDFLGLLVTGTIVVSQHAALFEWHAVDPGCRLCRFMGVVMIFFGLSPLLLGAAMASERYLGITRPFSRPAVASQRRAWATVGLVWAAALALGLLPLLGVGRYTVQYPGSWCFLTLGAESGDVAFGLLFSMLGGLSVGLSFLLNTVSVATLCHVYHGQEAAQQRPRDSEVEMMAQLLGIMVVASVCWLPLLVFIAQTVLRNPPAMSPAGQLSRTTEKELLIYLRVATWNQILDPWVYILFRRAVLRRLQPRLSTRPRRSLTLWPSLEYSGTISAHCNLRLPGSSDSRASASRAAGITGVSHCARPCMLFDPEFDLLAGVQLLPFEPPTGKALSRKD
From the text: (§1) The appropriate functional test for the evaluation of the agonistic and/or antagonistic potency of the compounds of the invention is the determination of calcium flux. Both TPα and […] are coupled to the G-protein Gαq. Therefore, stimulation of these receptors ultimately leads to a release of intracellular calcium ([Ca^2+]i) from intracellular stores. Consequently, the determination of [Ca^2+]i flux represents an appropriate functional test for the evaluation of the agonistic/antagonistic potency of compounds of the invention. Calcium can be measured using a molecule characterized by the covalent combination of a Ca^2+ chelating group and a fluorophore group. The Ca^2+ binding properties of these indicators are formed by the presence of a tetracarboxylic acid core as found for example in EGTA (ethylene glycol bis(2-aminoethyl) tetraacetic acid). Binding of Ca^2+ produces a wavelength shift in either the excitation or emission fluorescence spectra or a change in the emission intensity. Whereas the Ca^2+ binding to EGTA is pH dependent, recent dyes are designed from an EGTA derivative, BAPTA (1, 2-Bis(2-Aminophenoxy)ethane-N, N, N′, N′-Tetraacetic Acid). Loading of these dyes inside cells commonly uses esterified forms (acetoxymethyl ester), which are able to cross the cell membranes and are subsequently hydrolyzed by esterases inside the cell.
(§2) Estimation of [Ca^2+]i flux is calculated from the fluorescence signal (F). For calibration, the maximal fluorescence (Fmax, Ca^2+-saturated form of the dye) as well as minimal fluorescence (Fmin, Ca^2+-free form of the dye) must be determined. These parameters are determined usually in situ after the experiment, for example by subsequent addition to the mixture of a cell-disrupting agent that releases all Ca^2+ such as Triton X100 and a potent Ca^2+-chelating agent such as EGTA. After subtraction of background fluorescence, [Ca^2+]i flux can be calculated for non-ratiometric indicators.
(§3) Intracellular [Ca^2+]i fluxes were measured using a fluorescence plate reader following a modified protocol of Kassack et al., Quantitative comparison of functional screening by measuring intracellular Ca^2+ with radioligand binding at recombinant human dopamine receptors. AAPS Pharmsci, 2002, 4(4); 102-111, in cell lines (e.g. HEK293 or other cell type) endogenously-expressing or over-expressing either TPα, TPβ or any other receptor or protein to be screened.
(§4) By way of example, HEK 293 cells which have been grown for 3-4 days in normal growth media (minimum essential media containing 10% FBS and 2 mmol/l L-glutamine), under normal growth conditions (37° C., in humidified 5% CO2 atmosphere) are washed and harvested in KREBs-HEPES buffer (118 mM NaCl, 4.7 mM KCl, 1.2 mM MgSO4, 1.2 mM KH2PO4, 4.2 mM NaHCO3, 11.7 mM D-glucose, 1.3 mM CaCl2, 10 mM HEPES, pH 7.4). Cells are then incubated with 3 µM Fluo-4 in KREBs-HEPES buffer containing 1% Pluoronic F-127, for 1 hr at 25° C. with agitation. Thereafter, cells are washed in KREBs-HEPES buffer containing 0.5% bovine serum albumin and resuspended at a final concentration of 3×10^5 cells/ml. Approximately, 5.4×10^4 cells per well are plated in a 96-well plate and pre-incubated with test compounds for 10 min prior to measuring the fluorescence intensity at 520 nm for 25 seconds at 1 second intervals to monitor baseline using the Fluoroskan Ascent. Agonist (e.g., 1 μM U46619) is injected into separate wells by the automatic pipettor and fluorescence intensity is monitored at 520 nm for 75 seconds at 1 second intervals. Thereafter, Triton X100 and EGTA are added sequentially where Fmax refers to maximal fluorescence intensity measured after permeabilization of the cells with 2% Triton X100 and Fmin refers to fluorescence intensity measured after addition of 1 mM EGTA.
(§5) The dye Fluo-4 has its excitation peak at 480 nm, in the visible spectra, which spare cells to be damaged by UV (340-360 nm) stimulation and reduces auto-fluorescence of cells. […]

TPα = biological target: T2, TPα (Homo sapiens, UniProt P21731); test: U46619-induced [Ca2+]i mobilization in HEK.TPα cells; assay type: cell-based; conditions: 1 μM U46619, mean ± S.E.M.
T2 construct: expressed in transfected cells
T2 sequence (P21731 1-343): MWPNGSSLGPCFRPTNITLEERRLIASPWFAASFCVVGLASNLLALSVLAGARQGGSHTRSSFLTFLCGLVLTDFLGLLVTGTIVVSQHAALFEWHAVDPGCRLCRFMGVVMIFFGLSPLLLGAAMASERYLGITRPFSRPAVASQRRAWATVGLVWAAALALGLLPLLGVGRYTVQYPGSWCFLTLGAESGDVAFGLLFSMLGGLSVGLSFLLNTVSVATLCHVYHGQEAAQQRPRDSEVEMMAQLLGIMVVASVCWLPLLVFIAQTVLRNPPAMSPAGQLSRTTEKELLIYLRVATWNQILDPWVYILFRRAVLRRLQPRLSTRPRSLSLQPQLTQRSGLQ
From the text: as §1, §2, §3, §4, §5

platelets in whole blood = test: U46619-mediated platelet aggregation in whole blood (Sysmex haematological analyzer); assay type: cell-based, human; conditions: antagonist 0.1 μM, 1 μM U46619 for 3 min
Description: From an efficacy point of view, this is an important assay and, physiologically, relevant with respect to the therapeutic target.
Initially, the Sysmex haematological analyzer was used to examine the effect of the TP antagonists at a single concentration (0.1 μM) on U46619 (1 μM)-mediated platelet aggregation in whole blood.
FIG. 3 illustrates effects of the TP antagonist compounds on U46619-mediated platelet aggregation. Blood was taken form healthy volunteer by venupuncture into syringes containing 3.8% sodium citrate, 10 μM Indomethacin, such that the ratio of anticoagulant: blood was 1:9. The blood was aliquoted and incubated for 10 min with TP20 and selected NTP compounds, as indicated, where the antagonist were used at 0.1 μM prior to stimulation with 1 μM U46619 for 3 min. The blood was fixed with formaldehyde and platelet numbers counted using the Sysmex haematological analyzer. Data is presented as the mean percentage of control or non-treated blood sample (Percentage of Control; %) and represent data from 3 independent experiments were samples were treated in duplicate.

| SMILES | Calcium mobilization, Percentage of Control, TPα (TPα; antagonist 1 μM) | Calcium mobilization, Percentage of Control, TPα (TPα; antagonist 10 μM) | Calcium mobilization, Percentage of Control, TPβ (TPβ; antagonist 1 μM) | Calcium mobilization, Percentage of Control, TPβ (TPβ; antagonist 10 μM) | other results |
| --- | --- | --- | --- | --- | --- |
| Cc1ccc(Nc2ccc([N+](=O)[O-])cc2S(=O)(=O)NC(=O)NC(C)(C)C)cc1 [BM573, reference compound] |  |  |  |  | Reduction of U46619-mediated calcium mobilization in HEK.TPβ cells (TPβ): potently inhibited |
| COc1ccc(-c2cccc(Oc3ccc(C(F)(F)F)cc3S(=O)(=O)NC(=O)NC(C)(C)C)c2)cc1 [NTP3, N-(tert-butylcarbamoyl)-2-((4′-methoxy-[1,1-biphenyl]-3-yl)oxy)-5-(trifluoromethyl) benzenesulfonamide] | 69.6 ± 5.92% | 41.6 ± 5.45% | 46.0 ± 5.92% | 14.8 ± 2.44% |  |
| COc1ccc(-c2cccc(Oc3ccc(F)cc3S(=O)(=O)NC(=O)NC(C)(C)C)c2)cc1 [NTP8, N-(tert-butylcarbamoyl)-5-fluoro-2-((4′-methoxy-[1,1′-biphenyl]-3-yl)oxy)benzene-sulfonamide] |  |  |  |  | remaining activity at 1 µM (TPβ; antagonist 1 μM): 5.94 ± 1.85% |
| COc1ccc(-c2cccc(Oc3ccc(C(=O)N4CC(O)C4)cc3S(=O)(=O)NC(=O)NC(C)(C)C)c2)cc1 [NTP23, N-(tert-butylcarbamoyl)-5-(3-hydroxyazetidine-1-carbonyl)-2-((4′-methoxy-[1,1′-biphenyl]-3-yl)oxy)benzenesulfonamide] |  |  |  |  | remaining activity at 1 µM (TPβ; antagonist 1 μM): 4.84 ± 2.75% |
| COc1ccc(-c2cccc(Oc3ccc(S(C)(=O)=O)cc3S(=O)(=O)NC(=O)NC(C)(C)C)c2)cc1 [NTP27, N-(tert-butylcarbamoyl)-2-((4′-methoxy-[1,1′-biphenyl]-3-yl)oxy)-5-(methylsulfonyl) benzenesulfonamide] | 81.1 ± 10.2% | 68.4 ± 4.56% | 36.4 ± 3.80% | 16.3 ± 2.39% |  |
| COc1ccc(-c2cccc(Oc3ccc(Cl)cc3S(=O)(=O)NC(=O)NC(C)(C)C)c2)cc1 [NTP30, N-(tert-butylcarbamoyl)-5-chloro-2-((4′-methoxy-[1,1′-biphenyl]-3-yl)oxy) benzenesulfonamide] | 52.2 ± 3.90% | 23.3 ± 3.63% | 46.5 ± 5.86% | 9.31 ± 1.57% |  |
| COc1ccc(-c2cccc(Oc3cc(C)c(C#N)cc3S(=O)(=O)NC(=O)NC(C)(C)C)c2)cc1 [NTP32, N-(tert-butylcarbamoyl)-5-cyano-2-((4′-methoxy-[1,1′-biphenyl]-3-yl)oxy)-4-methyl benzenesulfonamide] | 80.3 ± 4.21% | 69.3 ± 2.07% | 93.6 ± 4.06% | 46.2 ± 4.83% |  |
| COc1ccc(-c2cccc(Oc3ccc([N+](=O)[O-])cc3S(=O)(=O)NC(=O)NC(C)(C)C)c2)cc1 [TP20, N-(tert-butylcarbamoyl)-2-((4′-methoxy-[1,1′-biphenyl]-3-yl)oxy)-5-nitrobenzene-sulfonamide] |  |  |  |  | inhibition at 0.5 µM (TPβ): > 50%; Reduction of U46619-mediated calcium mobilization in HEK.TPβ cells (TPβ): approx. 90%; Inhibition of the U46619-mediated reduction in platelet number (platelets in whole blood): almost completely inhibited |
| CC(C)(C)NC(=O)NS(=O)(=O)c1cc([N+](=O)[O-])ccc1Oc1cccc(-c2ccc(C(F)(F)F)cc2)c1 [XII] |  |  |  |  | inhibition at 0.5 µM (TPβ): > 50% |
